Earlier results on 4 compounds are cited in US20230285259A1, “METHOD FOR DYEING KERATINOUS MATERIAL, COMPRISING THE USE OF AN ORGANOSILICON COMPOUND, A DERIVATIVE OF ALKYLATED SILANOL, A COLORING COMPOUND AND A POST-TREATMENT AGENT” (Henkel AG & Co. KGaA, priority 2020, published 2023).

For this data set the following is noted: 25° C.

For the compound `O=S(=O)(O)c1ccc(N=Nc2c(O)ccc3ccccc23)cc1` [Acid Orange 7, 4-[(2-hydroxy-1-naphthyl)azo]benzene sulphonate], the solubility in water entry was “more than 7 g/L”.
With `O=[N+]([O-])c1cc([N+](=O)[O-])c2ccc(S(=O)(=O)O)cc2c1O` [Acid Yellow 9, 8-hydroxy-5,7-dinitro-2-naphthalenesulfonic acid], the solubility in water entry was “above 40 g/L”.
For the compound `CCN(Cc1cccc(S(=O)(=O)O)c1)c1ccc(C(=C2C=CC(=[N+](CC)Cc3cccc(S(=O)(=O)O)c3)C=C2)c2ccccc2S(=O)(=O)[O-])cc1` [Acid Blue 9], the solubility in water entry was “more than 20 wt. %”.
With `O=C(O)C1=NN(c2ccc(S(=O)(=O)O)cc2)C(=O)C1N=Nc1ccc(S(=O)(=O)O)cc1` (stereo not shown) [Acid Yellow 23, 4,5-dihydro-5-oxo-1-(4-sulfophenyl)-4-((4-sulfophenyl)azo)-1H-pyrazole-3-carboxylic acid], the “solubility in water (in words)” value is given as “highly soluble”.
